The structures appear in SMILES notation.

The test system of the assay is HVA calcium channel. The class given is cell-based, rat.

As to `COC(=O)C1=C(C)NC(C)=C(C(=O)OC)C1c1ccccc1[N+](=O)[O-]` [Nifedipine], the current after loading was −734.31 pA and the current before loading was −1471.35 pA. Besides, the inhibition rate (10 µM) is listed as 50.09%.

Source of the values: patent publication US10179802B2 (priority 2014, dated 2019).
